{"source": "patent US11542240B2", "about": "“STK19 inhibitors for treatment of cancer” (TRUSTEES OF BOSTON UNIVERSITY, priority 2018, dated 2023)", "experiment_in_all_cases": "biochemical", "assay_type_in_all_cases": "binding", "key": {"[1]": {"target": "panel of 468 diverse kinases (Homo sapiens, UniProt P10721)", "sequence (P10721 26-976 limits assumed)": "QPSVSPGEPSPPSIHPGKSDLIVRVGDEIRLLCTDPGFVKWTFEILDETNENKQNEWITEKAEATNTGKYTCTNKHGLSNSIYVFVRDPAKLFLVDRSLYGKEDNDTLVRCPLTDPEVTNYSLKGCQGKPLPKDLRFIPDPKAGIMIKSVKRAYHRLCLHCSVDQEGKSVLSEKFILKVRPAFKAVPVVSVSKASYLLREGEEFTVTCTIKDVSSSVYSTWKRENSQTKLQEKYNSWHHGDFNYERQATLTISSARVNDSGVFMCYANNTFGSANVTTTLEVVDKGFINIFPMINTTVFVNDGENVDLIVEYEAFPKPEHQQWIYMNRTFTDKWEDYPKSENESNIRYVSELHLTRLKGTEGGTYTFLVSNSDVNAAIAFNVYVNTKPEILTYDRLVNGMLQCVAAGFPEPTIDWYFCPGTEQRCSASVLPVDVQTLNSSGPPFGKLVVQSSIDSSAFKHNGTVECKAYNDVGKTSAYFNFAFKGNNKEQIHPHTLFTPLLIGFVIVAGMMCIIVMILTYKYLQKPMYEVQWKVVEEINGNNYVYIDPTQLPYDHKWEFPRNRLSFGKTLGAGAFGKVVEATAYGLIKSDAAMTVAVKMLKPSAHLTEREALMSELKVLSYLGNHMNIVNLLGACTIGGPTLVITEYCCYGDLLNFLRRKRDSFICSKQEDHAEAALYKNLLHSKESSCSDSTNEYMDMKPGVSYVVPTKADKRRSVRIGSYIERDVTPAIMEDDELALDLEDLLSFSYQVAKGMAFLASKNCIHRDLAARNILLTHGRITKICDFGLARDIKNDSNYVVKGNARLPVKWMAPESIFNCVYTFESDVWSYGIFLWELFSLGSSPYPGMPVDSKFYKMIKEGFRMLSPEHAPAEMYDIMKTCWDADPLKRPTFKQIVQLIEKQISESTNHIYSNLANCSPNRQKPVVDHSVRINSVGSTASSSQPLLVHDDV", "settings": "1000 nM, read-out: Percent Control"}, "[2]": {"target": "panel of 468 diverse kinases (Homo sapiens, UniProt P57059)", "settings": "SIK; 1000 nM; read-out: Percent Control"}, "[3]": {"target": "panel of 468 diverse kinases (Homo sapiens, UniProt O60674)", "settings": "JAK2(JH1domain-catalytic); 1000 nM; read-out: Percent Control"}, "[4]": {"target": "panel of 468 diverse kinases (Homo sapiens, UniProt P06239)", "sequence (P06239 2-509 limits assumed)": "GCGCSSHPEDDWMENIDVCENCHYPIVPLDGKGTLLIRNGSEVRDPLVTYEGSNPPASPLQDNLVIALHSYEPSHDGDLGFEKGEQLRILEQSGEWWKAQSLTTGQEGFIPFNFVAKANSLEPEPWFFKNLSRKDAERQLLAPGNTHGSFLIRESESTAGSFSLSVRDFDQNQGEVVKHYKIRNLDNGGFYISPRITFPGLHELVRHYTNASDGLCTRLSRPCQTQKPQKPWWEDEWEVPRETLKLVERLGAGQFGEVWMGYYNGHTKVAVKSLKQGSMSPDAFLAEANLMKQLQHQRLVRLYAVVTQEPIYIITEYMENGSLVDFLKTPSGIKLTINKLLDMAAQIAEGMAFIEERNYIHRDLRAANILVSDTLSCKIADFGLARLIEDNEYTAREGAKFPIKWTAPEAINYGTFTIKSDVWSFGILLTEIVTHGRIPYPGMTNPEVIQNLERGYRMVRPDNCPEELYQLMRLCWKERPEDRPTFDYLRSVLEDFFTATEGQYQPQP", "settings": "LCK; 1000 nM; read-out: Percent Control"}, "[5]": {"target": "panel of 468 diverse kinases (Homo sapiens, UniProt P36888, D835Y)", "settings": "FLT3(D835Y); 1000 nM; read-out: Percent Control"}, "[6]": {"target": "panel of 468 diverse kinases (Homo sapiens, UniProt P00533, G719S)", "sequence (P00533 25-1210 G719S limits assumed)": "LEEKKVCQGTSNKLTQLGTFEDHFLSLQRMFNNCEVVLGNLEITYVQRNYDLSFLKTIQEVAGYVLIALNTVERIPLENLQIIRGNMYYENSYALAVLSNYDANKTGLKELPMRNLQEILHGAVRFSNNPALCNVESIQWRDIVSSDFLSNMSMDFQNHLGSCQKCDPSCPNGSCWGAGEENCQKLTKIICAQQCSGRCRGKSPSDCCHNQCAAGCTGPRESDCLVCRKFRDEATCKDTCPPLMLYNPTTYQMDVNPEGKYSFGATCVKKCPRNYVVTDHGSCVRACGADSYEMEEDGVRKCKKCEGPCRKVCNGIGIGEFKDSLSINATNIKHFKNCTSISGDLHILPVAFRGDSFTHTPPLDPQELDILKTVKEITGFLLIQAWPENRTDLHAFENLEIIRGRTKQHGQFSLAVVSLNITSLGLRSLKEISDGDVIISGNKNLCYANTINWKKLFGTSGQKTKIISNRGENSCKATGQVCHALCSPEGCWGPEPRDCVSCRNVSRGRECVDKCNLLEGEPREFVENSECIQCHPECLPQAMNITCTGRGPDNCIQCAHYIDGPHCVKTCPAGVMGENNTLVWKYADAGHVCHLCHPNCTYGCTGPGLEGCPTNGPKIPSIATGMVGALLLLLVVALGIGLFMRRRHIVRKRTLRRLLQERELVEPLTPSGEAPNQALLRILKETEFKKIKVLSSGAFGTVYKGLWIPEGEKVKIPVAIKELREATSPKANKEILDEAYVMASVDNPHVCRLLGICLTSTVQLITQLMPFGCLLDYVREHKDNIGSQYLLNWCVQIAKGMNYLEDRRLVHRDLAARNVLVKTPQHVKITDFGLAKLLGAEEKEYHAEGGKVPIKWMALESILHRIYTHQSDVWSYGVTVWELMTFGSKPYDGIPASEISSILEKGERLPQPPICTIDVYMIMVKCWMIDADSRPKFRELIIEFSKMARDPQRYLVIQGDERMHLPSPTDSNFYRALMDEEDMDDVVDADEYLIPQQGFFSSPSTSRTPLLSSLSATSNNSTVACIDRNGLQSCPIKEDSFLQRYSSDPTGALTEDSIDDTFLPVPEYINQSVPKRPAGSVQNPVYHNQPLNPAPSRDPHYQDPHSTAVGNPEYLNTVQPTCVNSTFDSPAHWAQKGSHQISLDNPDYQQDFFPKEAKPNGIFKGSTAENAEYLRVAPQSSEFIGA", "settings": "EGFR(G719S); 1000 nM; read-out: Percent Control"}, "[7]": {"target": "panel of 468 diverse kinases (Homo sapiens, UniProt O00506)", "settings": "YSK1; 1000 nM; read-out: Percent Control"}, "[8]": {"target": "panel of 468 diverse kinases (Homo sapiens, UniProt Q02156)", "settings": "PRKCE; 1000 nM; read-out: Percent Control"}, "[9]": {"target": "panel of 468 diverse kinases (Homo sapiens, UniProt P0C264)", "settings": "SgK110; 1000 nM; read-out: Percent Control"}, "[10]": {"target": "panel of 468 diverse kinases (Homo sapiens, UniProt Q9NQU5)", "settings": "PAK6; 1000 nM; read-out: Percent Control"}, "[11]": {"target": "panel of 468 diverse kinases (Homo sapiens, UniProt Q6PHR2)", "settings": "ULK3; 1000 nM; read-out: Percent Control"}, "[12]": {"target": "panel of 468 diverse kinases (Homo sapiens, UniProt P41743)", "sequence (P41743 2-596 limits assumed)": "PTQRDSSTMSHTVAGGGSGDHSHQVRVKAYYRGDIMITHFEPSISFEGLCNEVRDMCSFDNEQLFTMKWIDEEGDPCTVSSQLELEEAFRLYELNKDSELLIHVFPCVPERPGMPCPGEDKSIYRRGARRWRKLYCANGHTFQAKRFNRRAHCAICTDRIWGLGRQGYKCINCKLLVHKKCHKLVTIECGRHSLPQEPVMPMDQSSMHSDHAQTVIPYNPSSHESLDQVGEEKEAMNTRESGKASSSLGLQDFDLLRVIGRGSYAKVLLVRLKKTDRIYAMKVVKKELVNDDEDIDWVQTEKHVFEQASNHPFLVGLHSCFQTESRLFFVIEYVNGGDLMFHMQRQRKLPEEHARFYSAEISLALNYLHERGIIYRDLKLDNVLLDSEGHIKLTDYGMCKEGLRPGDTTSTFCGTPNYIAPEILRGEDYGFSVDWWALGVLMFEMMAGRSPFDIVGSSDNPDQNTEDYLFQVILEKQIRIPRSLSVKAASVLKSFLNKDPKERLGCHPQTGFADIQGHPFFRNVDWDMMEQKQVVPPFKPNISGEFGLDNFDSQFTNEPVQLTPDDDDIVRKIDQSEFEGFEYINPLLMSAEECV", "settings": "PRKCI; 1000 nM; read-out: Percent Control"}, "[13]": {"target": "panel of 468 diverse kinases (Homo sapiens, UniProt Q7KZI7)", "settings": "MARK2; 1000 nM; read-out: Percent Control"}, "[14]": {"target": "panel of 468 diverse kinases (Homo sapiens, UniProt P49841)", "settings": "GSK3B; 1000 nM; read-out: Percent Control"}, "[15]": {"target": "panel of 468 diverse kinases (Homo sapiens, UniProt P42336, H1047L)", "settings": "PIK3CA(H1047L); 1000 nM; read-out: Percent Control"}, "[16]": {"target": "panel of 468 diverse kinases (Homo sapiens, UniProt Q52WX2)", "settings": "SBK1; 1000 nM; read-out: Percent Control"}, "[17]": {"target": "panel of 468 diverse kinases (Homo sapiens, UniProt O15075)", "settings": "DCAMKL1; 1000 nM; read-out: Percent Control"}, "[18]": {"target": "panel of 468 diverse kinases (Homo sapiens, UniProt Q9BX84)", "settings": "TRPM6; 1000 nM; read-out: Percent Control"}, "[19]": {"target": "panel of 468 diverse kinases (Homo sapiens, UniProt Q86Z02)", "settings": "HIPK1; 1000 nM; read-out: Percent Control"}, "[20]": {"target": "panel of 468 diverse kinases (Homo sapiens, UniProt Q92918)", "settings": "HPK1; 1000 nM; read-out: Percent Control"}, "[21]": {"target": "panel of 468 diverse kinases (Homo sapiens, UniProt P27361)", "sequence (P27361 2-379 limits assumed)": "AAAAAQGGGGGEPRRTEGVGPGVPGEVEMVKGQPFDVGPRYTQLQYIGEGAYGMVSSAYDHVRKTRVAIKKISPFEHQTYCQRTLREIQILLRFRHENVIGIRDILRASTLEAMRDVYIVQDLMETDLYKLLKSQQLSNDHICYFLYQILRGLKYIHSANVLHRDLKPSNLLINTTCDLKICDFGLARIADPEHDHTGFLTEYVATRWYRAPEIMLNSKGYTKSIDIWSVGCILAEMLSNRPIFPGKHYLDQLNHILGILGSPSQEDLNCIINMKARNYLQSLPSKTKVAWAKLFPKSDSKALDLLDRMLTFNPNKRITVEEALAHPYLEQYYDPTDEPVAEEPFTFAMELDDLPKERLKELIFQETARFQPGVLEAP", "settings": "ERK1; 1000 nM; read-out: Percent Control"}, "[22]": {"target": "panel of 468 diverse kinases (Homo sapiens, UniProt O94768)", "settings": "DRAK2; 1000 nM; read-out: Percent Control"}, "[23]": {"target": "panel of 468 diverse kinases (Homo sapiens, UniProt Q16512)", "settings": "PKN1; 1000 nM; read-out: Percent Control"}, "[24]": {"target": "panel of 468 diverse kinases (Homo sapiens, UniProt P06213)", "settings": "INSR; 1000 nM; read-out: Percent Control"}, "[25]": {"target": "panel of 468 diverse kinases (Homo sapiens, UniProt Q9BWU1)", "settings": "CDK11; 1000 nM; read-out: Percent Control"}, "[26]": {"target": "panel of 468 diverse kinases (Homo sapiens, UniProt P48730)", "settings": "CSNK1D; 1000 nM; read-out: Percent Control"}, "[27]": {"target": "panel of 468 diverse kinases (Homo sapiens, UniProt Q9H422)", "settings": "HIPK3; 1000 nM; read-out: Percent Control"}, "[28]": {"target": "panel of 468 diverse kinases (Homo sapiens, UniProt Q13164)", "settings": "ERK5; 1000 nM; read-out: Percent Control"}, "[29]": {"target": "panel of 468 diverse kinases (Homo sapiens, UniProt Q9NRH2)", "settings": "SNRK; 1000 nM; read-out: Percent Control"}, "[30]": {"target": "panel of 468 diverse kinases (Homo sapiens, UniProt O14976)", "sequence (O14976 2-1311 limits assumed)": "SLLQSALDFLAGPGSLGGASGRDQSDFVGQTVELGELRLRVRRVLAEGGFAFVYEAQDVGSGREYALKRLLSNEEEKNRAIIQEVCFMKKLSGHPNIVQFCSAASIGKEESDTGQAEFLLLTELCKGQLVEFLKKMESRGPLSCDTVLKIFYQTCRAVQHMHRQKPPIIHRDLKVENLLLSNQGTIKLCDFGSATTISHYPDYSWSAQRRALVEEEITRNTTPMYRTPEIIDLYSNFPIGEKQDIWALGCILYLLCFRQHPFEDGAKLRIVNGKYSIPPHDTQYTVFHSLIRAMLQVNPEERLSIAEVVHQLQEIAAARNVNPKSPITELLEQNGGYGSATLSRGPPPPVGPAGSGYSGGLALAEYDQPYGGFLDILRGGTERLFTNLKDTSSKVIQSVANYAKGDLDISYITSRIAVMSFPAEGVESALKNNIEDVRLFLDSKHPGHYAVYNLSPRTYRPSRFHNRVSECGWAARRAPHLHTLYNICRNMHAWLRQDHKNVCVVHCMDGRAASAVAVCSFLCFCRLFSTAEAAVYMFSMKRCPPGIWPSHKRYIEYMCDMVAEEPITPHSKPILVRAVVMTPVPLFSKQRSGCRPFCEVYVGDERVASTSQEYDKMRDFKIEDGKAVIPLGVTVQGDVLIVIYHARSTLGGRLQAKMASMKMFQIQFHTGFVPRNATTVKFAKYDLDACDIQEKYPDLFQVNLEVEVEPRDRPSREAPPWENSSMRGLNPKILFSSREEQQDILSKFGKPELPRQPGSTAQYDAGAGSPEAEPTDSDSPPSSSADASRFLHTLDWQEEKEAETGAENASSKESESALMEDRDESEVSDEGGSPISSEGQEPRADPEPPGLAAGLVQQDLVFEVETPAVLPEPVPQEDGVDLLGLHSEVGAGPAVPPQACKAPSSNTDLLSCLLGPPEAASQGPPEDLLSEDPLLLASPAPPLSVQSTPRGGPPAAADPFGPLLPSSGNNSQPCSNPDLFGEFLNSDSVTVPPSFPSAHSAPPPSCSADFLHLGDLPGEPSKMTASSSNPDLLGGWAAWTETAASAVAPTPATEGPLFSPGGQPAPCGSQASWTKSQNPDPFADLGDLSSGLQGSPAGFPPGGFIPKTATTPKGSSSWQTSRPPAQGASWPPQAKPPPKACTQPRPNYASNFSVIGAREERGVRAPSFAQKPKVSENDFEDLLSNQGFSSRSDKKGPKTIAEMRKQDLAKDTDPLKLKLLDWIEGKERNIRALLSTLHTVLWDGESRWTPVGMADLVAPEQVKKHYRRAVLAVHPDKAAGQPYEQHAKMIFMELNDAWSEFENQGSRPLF", "settings": "GAK; 1000 nM; read-out: Percent Control"}, "[31]": {"target": "panel of 468 diverse kinases (Homo sapiens, UniProt Q8N5S9)", "settings": "CAMKK1; 1000 nM; read-out: Percent Control"}}, "note": "Like-named read-outs stand apart in the source and are kept apart here."}
{"smiles": "COc1cc2nc(NC3CC3)nc(NC3CCN(C(C)C)CC3)c2cc1OC", "note": "[Formula IV]", "values": [{"measurement": "remaining activity at 1 µM", "setting": "[1]; KIT-autoinhibited", "result": 57, "unit": "%"}, {"measurement": "remaining activity at 1 µM", "setting": "[1]; KIT", "result": 95, "unit": "%"}, {"measurement": "remaining activity at 1 µM", "setting": "[2]", "result": 81, "unit": "%"}, {"measurement": "remaining activity at 1 µM", "setting": "[3]", "result": 74, "unit": "%"}, {"measurement": "remaining activity at 1 µM", "setting": "[4]", "result": 100, "unit": "%"}, {"measurement": "remaining activity at 1 µM", "setting": "[5]", "result": 88, "unit": "%"}, {"measurement": "remaining activity at 1 µM", "setting": "[6]", "result": 91, "unit": "%"}, {"measurement": "remaining activity at 1 µM", "setting": "[7]", "result": 98, "unit": "%"}, {"measurement": "remaining activity at 1 µM", "setting": "[8]", "result": 100, "unit": "%"}, {"measurement": "remaining activity at 1 µM", "setting": "[9]", "result": 97, "unit": "%"}, {"measurement": "remaining activity at 1 µM", "setting": "[10]", "result": 91, "unit": "%"}, {"measurement": "remaining activity at 1 µM", "setting": "[11]", "result": 71, "unit": "%"}, {"measurement": "remaining activity at 1 µM", "setting": "[12]", "result": 71, "unit": "%"}, {"measurement": "remaining activity at 1 µM", "setting": "[13]", "result": 100, "unit": "%"}, {"measurement": "remaining activity at 1 µM", "setting": "[14]", "result": 72, "unit": "%"}, {"measurement": "remaining activity at 1 µM", "setting": "[15]", "result": 90, "unit": "%"}, {"measurement": "remaining activity at 1 µM", "setting": "[16]", "result": 64, "unit": "%"}, {"measurement": "remaining activity at 1 µM", "setting": "[17]", "result": 53, "unit": "%"}, {"measurement": "remaining activity at 1 µM", "setting": "[18]", "result": 90, "unit": "%"}, {"measurement": "remaining activity at 1 µM", "setting": "[19]", "result": 100, "unit": "%"}, {"measurement": "remaining activity at 1 µM", "setting": "[20]", "result": 86, "unit": "%"}, {"measurement": "remaining activity at 1 µM", "setting": "[21]", "result": 98, "unit": "%"}, {"measurement": "remaining activity at 1 µM", "setting": "[22]", "result": 79, "unit": "%"}, {"measurement": "remaining activity at 1 µM", "setting": "[23]", "result": 99, "unit": "%"}, {"measurement": "remaining activity at 1 µM", "setting": "[24]", "result": 57, "unit": "%"}, {"measurement": "remaining activity at 1 µM", "setting": "[25]", "result": 82, "unit": "%"}, {"measurement": "remaining activity at 1 µM", "setting": "[26]", "result": 98, "unit": "%"}, {"measurement": "remaining activity at 1 µM", "setting": "[27]", "result": 61, "unit": "%"}, {"measurement": "remaining activity at 1 µM", "setting": "[28]", "result": 86, "unit": "%"}, {"measurement": "remaining activity at 1 µM", "setting": "[29]", "result": 78, "unit": "%"}, {"measurement": "remaining activity at 1 µM", "setting": "[30]", "result": 92, "unit": "%"}, {"measurement": "remaining activity at 1 µM", "setting": "[31]", "result": 97, "unit": "%"}]}
